Experimental data published in publication PMC11134391 (JACS Au, 2024).
pKi: −log10 of the molar value.

Legend:
HDAC8 [1] = target: T1, HDAC8 (Homo sapiens, UniProt Q9BY41); experiment: HDAC inhibition assay; format: biochemical
T1 sequence (Q9BY41 1-377): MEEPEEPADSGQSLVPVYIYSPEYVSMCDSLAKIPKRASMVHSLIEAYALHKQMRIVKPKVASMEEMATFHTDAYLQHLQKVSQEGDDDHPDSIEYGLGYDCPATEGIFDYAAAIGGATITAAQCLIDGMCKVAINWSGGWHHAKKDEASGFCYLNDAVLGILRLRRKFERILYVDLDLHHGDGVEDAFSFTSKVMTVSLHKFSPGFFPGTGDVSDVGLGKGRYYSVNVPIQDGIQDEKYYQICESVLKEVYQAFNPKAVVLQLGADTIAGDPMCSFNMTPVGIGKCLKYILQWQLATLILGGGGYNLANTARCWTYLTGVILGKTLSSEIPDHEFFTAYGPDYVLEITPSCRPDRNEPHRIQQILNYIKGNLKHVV

HDAC6 [2] = target: T2, HDAC6 (Homo sapiens, UniProt Q9UBN7); experiment: HDAC inhibition assay; format: biochemical; conditions: for selectivity for HDAC6 over HDAC8 (between the two enzymes): from Ki values
T2 sequence (Q9UBN7 1-1215): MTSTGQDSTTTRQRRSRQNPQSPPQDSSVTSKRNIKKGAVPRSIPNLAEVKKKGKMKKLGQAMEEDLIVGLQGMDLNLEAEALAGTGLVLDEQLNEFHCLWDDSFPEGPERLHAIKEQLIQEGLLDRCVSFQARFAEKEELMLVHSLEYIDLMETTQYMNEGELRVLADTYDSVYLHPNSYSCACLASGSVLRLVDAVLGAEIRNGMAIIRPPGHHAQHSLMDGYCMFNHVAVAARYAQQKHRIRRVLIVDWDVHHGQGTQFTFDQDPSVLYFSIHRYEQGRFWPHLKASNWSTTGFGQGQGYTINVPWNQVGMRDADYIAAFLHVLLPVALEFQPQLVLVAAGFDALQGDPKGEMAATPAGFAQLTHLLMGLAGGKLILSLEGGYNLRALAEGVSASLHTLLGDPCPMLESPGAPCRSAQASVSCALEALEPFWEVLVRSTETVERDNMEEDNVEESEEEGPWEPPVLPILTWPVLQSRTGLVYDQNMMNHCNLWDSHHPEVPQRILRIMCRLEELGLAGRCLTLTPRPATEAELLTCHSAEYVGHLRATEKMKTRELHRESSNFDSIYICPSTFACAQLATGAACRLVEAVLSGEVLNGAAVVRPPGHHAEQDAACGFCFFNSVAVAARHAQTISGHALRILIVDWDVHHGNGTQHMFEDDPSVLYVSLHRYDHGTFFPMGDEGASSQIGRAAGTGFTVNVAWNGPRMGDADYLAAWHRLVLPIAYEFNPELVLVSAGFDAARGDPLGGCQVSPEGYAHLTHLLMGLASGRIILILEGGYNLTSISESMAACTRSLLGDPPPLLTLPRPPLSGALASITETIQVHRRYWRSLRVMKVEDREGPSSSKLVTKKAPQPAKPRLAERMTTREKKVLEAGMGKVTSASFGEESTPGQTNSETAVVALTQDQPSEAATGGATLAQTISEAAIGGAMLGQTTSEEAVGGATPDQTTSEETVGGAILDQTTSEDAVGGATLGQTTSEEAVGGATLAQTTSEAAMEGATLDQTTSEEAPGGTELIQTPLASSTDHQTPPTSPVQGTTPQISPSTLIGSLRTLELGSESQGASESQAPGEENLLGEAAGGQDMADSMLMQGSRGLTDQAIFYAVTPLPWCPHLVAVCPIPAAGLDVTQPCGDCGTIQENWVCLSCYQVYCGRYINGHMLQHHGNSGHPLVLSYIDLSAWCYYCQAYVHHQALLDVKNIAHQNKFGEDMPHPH

HDAC6 [3] = target: T2, HDAC6; experiment: HDAC inhibition assay with preincubation, HDAC6; format: biochemical; conditions: preincubation 0, 0.5, 1 or 2 h at 37 °C
[4] = system: lysine acetylation (α-tubulin, H3K18, H3K27, and SMC3) in HEK293T cells; experiment: Protein acetylation assay; format: cell-based, human; conditions: 5 h, 1 or 10 μM, Western blot
HDAC11 = target: T3, HDAC11 (Homo sapiens, UniProt Q96DB2); experiment: HDAC inhibition assay with preincubation, HDAC11; format: biochemical; conditions: preincubation 0, 0.5, 1 or 2 h at 37 °C
T3 sequence (Q96DB2 1-347): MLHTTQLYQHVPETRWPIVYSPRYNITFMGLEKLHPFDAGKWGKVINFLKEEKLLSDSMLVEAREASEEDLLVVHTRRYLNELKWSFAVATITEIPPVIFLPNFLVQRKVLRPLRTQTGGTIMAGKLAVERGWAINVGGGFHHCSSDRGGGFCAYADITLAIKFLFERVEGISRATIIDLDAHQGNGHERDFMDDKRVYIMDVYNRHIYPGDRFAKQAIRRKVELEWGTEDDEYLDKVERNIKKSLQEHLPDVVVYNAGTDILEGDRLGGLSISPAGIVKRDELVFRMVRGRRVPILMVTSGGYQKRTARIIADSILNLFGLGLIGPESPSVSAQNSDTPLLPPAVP

HDAC8 [5] = target: T1, HDAC8; experiment: Cellular thermal shift assay; format: cell-based; conditions: HEK293T cells, 10 µM, 2 h

| Structure (SMILES) | pKi (HDAC8 [1]) | selectivity for HDAC6 over HDAC8 (between the two enzymes) (HDAC6 [2]) | change of IC50 upon preincubation with HDAC6 (HDAC6 [3]) | acetylation of α-tubulin compared to DMSO control [4] | change of IC50 upon preincubation with HDAC11 (HDAC11) | pKi (HDAC6 [2]) | thermal shift of HDAC8 relative to DMSO control (HDAC8 [5]) |
| --- | --- | --- | --- | --- | --- | --- | --- |
| COc1ccc(OS(=O)(=O)Oc2cccc(C(=O)NO)c2)cc1OC [A17] | 7.66 |  |  |  |  |  |  |
| O=C(NO)c1cc(F)cc(OS(=O)(=O)Oc2ccccc2)c1 [C1] |  | 20 fold | did not observe any decrease in IC50 value upon preincubation | significant upregulation |  |  |  |
| Cc1c(OS(=O)(=O)Oc2ccc(Oc3ccccc3)cc2)cccc1C(=O)NO [D21] |  |  |  |  | did not observe any decrease in IC50 value upon preincubation |  |  |
| O=C(NO)c1cncc(OS(=O)(=O)Oc2ccc3ccccc3c2)c1 [E24] |  | ~20 fold | did not observe any decrease in IC50 value upon preincubation | significant upregulation |  | 7.85 | no shift |
